Assay results from patent US9920061B2, “Imidazo[1,5-A]pyrimidinyl carboxamide compounds and their use in the treatment of medical disorders” (Lysosomal Therapeutics Inc., priority 2016, dated 2018).
Converted amounts (≈) assume the structure as drawn.

What was measured:
[1] = Compound solubility in water; type: physicochemical; details: in water
[2] = molecular target: T1, glucocerebrosidase (Gcase) (Homo sapiens, UniProt P04062); assay: Glucocerebrosidase (Gcase) activation assay, 4-methylumbelliferyl-beta-D-glucopyranoside substrate, with saposin C; type: biochemical; details: for activation at 0.1 µM: test compound at 0.1 μM, read-out: Percent Gcase Activation, 0.1 μM Test Compound; for activation at 1 µM: test compound at 1.0 μM, read-out: Percent Gcase Activation, 1 μM Test Compound
T1 sequence (P04062 40-536): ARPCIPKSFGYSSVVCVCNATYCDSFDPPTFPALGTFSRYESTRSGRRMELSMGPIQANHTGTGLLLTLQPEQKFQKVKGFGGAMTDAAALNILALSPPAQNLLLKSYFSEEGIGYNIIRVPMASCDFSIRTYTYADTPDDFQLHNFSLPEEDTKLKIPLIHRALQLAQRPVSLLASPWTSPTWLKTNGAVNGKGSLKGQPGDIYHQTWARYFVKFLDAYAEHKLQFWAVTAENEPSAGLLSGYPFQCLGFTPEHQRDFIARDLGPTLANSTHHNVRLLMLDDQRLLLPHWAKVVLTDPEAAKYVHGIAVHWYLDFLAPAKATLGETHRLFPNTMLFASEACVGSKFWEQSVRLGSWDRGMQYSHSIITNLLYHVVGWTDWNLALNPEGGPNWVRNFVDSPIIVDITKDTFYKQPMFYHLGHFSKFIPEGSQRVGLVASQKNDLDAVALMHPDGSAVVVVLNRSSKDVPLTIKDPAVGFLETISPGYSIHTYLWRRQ
Outline: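 Compounds tested at 1.0 and 0.1 μM, then in 8-point 3-fold curves, were pre-incubated 30 min at room temperature with 10 nM GCase plus 100 nM saposin C in PS/triton micelles, pH 4.7. Reaction with substrate (2 mM in micelles before mixing) ran 15 min; stopped at pH 12.5, read at ex 365/em 440 nm.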

SMILES	solubility [1]	activation at 0.1 µM [2]	activation at 1 µM [2]
COc1ccc(F)c(-c2cc(C)n3cnc(C(=O)NC(C)(C)C)c3n2)c1 [IV-103]	0.7 µg/mL (≈ 1.96 µM)	10 to 20%	> 60%
COc1ccc(F)c(-c2cc(C)n3cnc(C(=O)NC(C)C(F)(F)F)c3n2)c1 (stereo not drawn) [IV-104]	0.7 µg/mL (≈ 1.77 µM)	> 20%	> 60%
CCc1cc(-c2ccns2)nc2c(C(=O)NC(C)(C)C)ncn12 [IV-105]	15.9 µg/mL (≈ 48.3 µM)	10 to 20%	> 60%
CCc1cc(-c2ccsn2)nc2c(C(=O)NC(C3CC3)C(F)(F)F)ncn12 (stereo not drawn) [IV-106]	0.6 µg/mL (≈ 1.52 µM)	> 20%	> 60%
CCc1cc(N2CCC(C)(C)C2=O)nc2c(C(=O)NC(C3CC3)C(F)(F)F)ncn12 (stereo not drawn) [IV-107]	29.6 µg/mL (≈ 69.9 µM)	10 to 20%	> 60%
Cc1cc(-c2cc(F)ccc2C#N)nc2c(C(=O)NC(C3CC3)C(F)(F)F)ncn12 (stereo not drawn) [IV-108]	0.7 µg/mL (≈ 1.68 µM)	> 20%	> 60%
Cc1cc(-c2ccccc2C#N)nc2c(C(=O)NC(C)(C)C)ncn12 [IV-109]	2.5 µg/mL (≈ 7.5 µM)	< 10%	30 to 60%

Now from value to molecule:

solubility [1]	activation at 0.1 µM [2]	activation at 1 µM [2]	SMILES
1.2 µg/mL (≈ 2.88 µM)	> 20%	> 60%	Cc1cc(-c2cc(F)cc(C#N)c2)nc2c(C(=O)NC(C3CC3)C(F)(F)F)ncn12 (stereo not drawn) [IV-110]
0.9 µg/mL (≈ 2.56 µM)	10 to 20%	> 60%	Cc1cc(-c2cc(F)cc(C#N)c2)nc2c(C(=O)NC(C)(C)C)ncn12 [IV-111]
1.1 µg/mL (≈ 2.64 µM)	10 to 20%	> 60%	Cc1cc(-c2cccc(C(N)=O)c2)nc2c(C(=O)NC(C3CC3)C(F)(F)F)ncn12 (stereo not drawn) [IV-112]
17.2 µg/mL (≈ 41.2 µM)	> 20%	> 60%	Cc1cc(N2CCCC(F)(F)C2)nc2c(C(=O)NC(C3CC3)C(F)(F)F)ncn12 (stereo not drawn) [IV-113]
32.8 µg/mL (≈ 97.2 µM)	< 10%	< 30%	Cc1cc(Oc2cccnc2)nc2c(C(=O)N[C@@H](C)C3CC3)ncn12 [IV-114]
29.6 µg/mL (≈ 87.7 µM)	< 10%	< 30%	Cc1cc(Oc2ccncc2)nc2c(C(=O)N[C@@H](C)C3CC3)ncn12 [IV-115]
1.1 µg/mL (≈ 2.43 µM)	> 20%	> 60%	Cc1cc(-c2cccc(-c3ncccn3)c2)nc2c(C(=O)NC(C3CC3)C(F)(F)F)ncn12 (stereo not drawn) [IV- 61]
